According to paper PMC5218480 (PLoS ONE, 2017):

Tested on: MV-4-11 cells
Test: Gene expression microarray analysis (Affymetrix PrimeView) and GSEA
Assay type: cell-based, human
Design: RFU PODN (11730768_x_at) / Fold change /veh PODN (11730768_x_at) / RFU LINC00158 (11744669_a_at) / Fold change /veh LINC00158 (11744669_a_at) / RFU DUSP10 (11751237_a_at) / Fold change /veh DUSP10 (11751237_a_at) / RFU ID3 (11757404_x_at) / Fold change /veh ID3 (11757404_x_at) / RFU PLEKHG5 (11737974_s_at) / Fold change /veh PLEKHG5 (11737974_s_at) / RFU LRRC4B (11730491_at) / Fold change /veh LRRC4B (11730491_at) / RFU GIMAP4 (11747438_a_at) / Fold change /veh GIMAP4 (11747438_a_at) / RFU KRT8 (11758183_x_at) / Fold change /veh KRT8 (11758183_x_at) / RFU CNN1 (11734310_a_at) / Fold change /veh CNN1 (11734310_a_at) / RFU VPS37D (11726825_at) / Fold change /veh VPS37D (11726825_at) / RFU C10orf10 (11716522_x_at) / Fold change /veh C10orf10 (11716522_x_at) / RFU KIR2DL2 /// KIR2DL4 /// KIR2DL5A /// KIR2DL5B /// KIR2DS1 /// KIR2DS2 /// KIR2DS3 /// KIR2DS4 /// KIR3DL3 /// KIR3DL3 /// KIR3DS1 (11738374_at) / Fold change /veh KIR2DL2 /// KIR2DL4 /// KIR2DL5A /// KIR2DL5B /// KIR2DS1 /// KIR2DS2 /// KIR2DS3 /// KIR2DS4 /// KIR3DL3 /// KIR3DL3 /// KIR3DS1 (11738374_at) / RFU C1QL1 (11718748_at) / Fold change /veh C1QL1 (11718748_at) / RFU TMPRSS4 (11747572_a_at) / Fold change /veh TMPRSS4 (11747572_a_at) / RFU HAMP (11756126_x_at) / Fold change /veh HAMP (11756126_x_at) / RFU RNFT2 (11725882_a_at) / Fold change /veh RNFT2 (11725882_a_at) / RFU NR4A2 (11747474_a_at) / Fold change /veh NR4A2 (11747474_a_at) / RFU ABCC12 (11746883_a_at) / Fold change /veh ABCC12 (11746883_a_at) / RFU TMEM136 (11760407_x_at) / Fold change /veh TMEM136 (11760407_x_at) / RFU CLDN22 /// WWC2 (11732394_at) / Fold change /veh CLDN22 /// WWC2 (11732394_at) / RFU HLA-DPB1 (11760878_x_at) / Fold change /veh HLA-DPB1 (11760878_x_at) / RFU SPINT1 (11716480_a_at) / Fold change /veh SPINT1 (11716480_a_at) / RFU GAP43 (11754022_s_at) / Fold change /veh GAP43 (11754022_s_at) / RFU A4GNT (11735810_at) / Fold change /veh A4GNT (11735810_at) / RFU PRB3 (11715151_x_at) / Fold change /veh PRB3 (11715151_x_at) / RFU TUBB4B (11761932_at) / Fold change /veh TUBB4B (11761932_at) / RFU CAPN14 (11732068_a_at) / Fold change /veh CAPN14 (11732068_a_at) / RFU TMCC2 (11721928_a_at) / Fold change /veh TMCC2 (11721928_a_at) / RFU IRGQ (11745062_a_at) / Fold change /veh IRGQ (11745062_a_at) / RFU FAM174B (11720279_a_at) / Fold change /veh FAM174B (11720279_a_at) / RFU TMPRSS4 (11748680_a_at) / Fold change /veh TMPRSS4 (11748680_a_at) / RFU FAM212B (11763350_a_at) / Fold change /veh FAM212B (11763350_a_at) / RFU PLEKHG5 (11743358_a_at) / Fold change /veh PLEKHG5 (11743358_a_at) / RFU ZSCAN30 (11745921_a_at) / Fold change /veh ZSCAN30 (11745921_a_at) / RFU CMKLR1 (11741424_a_at) / Fold change /veh CMKLR1 (11741424_a_at) / RFU LOC101060620 /// MAPK8IP1 (11723275_at) / Fold change /veh LOC101060620 /// MAPK8IP1 (11723275_at) / RFU SPTSSB (11747773_x_at) / Fold change /veh SPTSSB (11747773_x_at) / RFU PRSS12 (11739890_at) / Fold change /veh PRSS12 (11739890_at) / RFU BIN1 (11741810_x_at) / Fold change /veh BIN1 (11741810_x_at) / RFU WNT11 (11732464_a_at) / Fold change /veh WNT11 (11732464_a_at) / RFU C10orf10 (11716521_a_at) / Fold change /veh C10orf10 (11716521_a_at) / RFU C5orf56 (11738089_at) / Fold change /veh C5orf56 (11738089_at) / RFU CYB561 (11721691_x_at) / Fold change /veh CYB561 (11721691_x_at) / RFU ANKRD19P (11752326_a_at) / Fold change /veh ANKRD19P (11752326_a_at) / RFU OR2T12 /// OR2T33 /// OR2T8 (11738714_s_at) / Fold change /veh OR2T12 /// OR2T33 /// OR2T8 (11738714_s_at) / RFU VCAN (11748164_a_at) / Fold change /veh VCAN (11748164_a_at) / RFU JSRP1 (11732532_at) / Fold change /veh JSRP1 (11732532_at) / RFU KRTAP10-11 (11738290_x_at) / Fold change /veh KRTAP10-11 (11738290_x_at) / RFU MYO3A (11730013_a_at) / Fold change /veh MYO3A (11730013_a_at) / RFU EBF3 (11725865_a_at) / Fold change /veh EBF3 (11725865_a_at) / RFU CAMK2N1 (11719241_x_at) / Fold change /veh CAMK2N1 (11719241_x_at) / RFU C5orf56 (11738088_a_at) / Fold change /veh C5orf56 (11738088_a_at) / RFU OLFML3 (11715873_a_at) / Fold change /veh OLFML3 (11715873_a_at) / RFU LOC100653217 /// NTM (11731650_a_at) / Fold change /veh LOC100653217 /// NTM (11731650_a_at) / RFU MAPK11 (11762145_a_at) / Fold change /veh MAPK11 (11762145_a_at) / RFU FIZ1 (11724087_x_at) / Fold change /veh FIZ1 (11724087_x_at) / RFU OASL (11726364_x_at) / Fold change /veh OASL (11726364_x_at) / RFU SOX15 (11748057_x_at) / Fold change /veh SOX15 (11748057_x_at) / RFU CD79A (11719716_a_at) / Fold change /veh CD79A (11719716_a_at) / RFU HIST1H1D (11736915_at) / Fold change /veh HIST1H1D (11736915_at) / RFU CASKIN2 (11723855_a_at) / Fold change /veh CASKIN2 (11723855_a_at) / RFU LOC730098 (11760151_x_at) / Fold change /veh LOC730098 (11760151_x_at) / RFU OR4N2 (11742367_at) / Fold change /veh OR4N2 (11742367_at) / RFU PRRT2 (11749266_a_at) / Fold change /veh PRRT2 (11749266_a_at) / RFU SNX32 (11753110_a_at) / Fold change /veh SNX32 (11753110_a_at) / RFU CDHR5 (11726645_a_at) / Fold change /veh CDHR5 (11726645_a_at) / RFU RCAN1 (11760418_a_at) / Fold change /veh RCAN1 (11760418_a_at) / RFU FAM167A (11723789_a_at) / Fold change /veh FAM167A (11723789_a_at) / RFU FAM26E (11764081_at) / Fold change /veh FAM26E (11764081_at) / RFU ISYNA1 (11749810_s_at) / Fold change /veh ISYNA1 (11749810_s_at) / RFU ACY1 (11761880_at) / Fold change /veh ACY1 (11761880_at) / RFU 11764098_at / Fold change /veh 11764098_at / RFU SAMD14 (11745864_x_at) / Fold change /veh SAMD14 (11745864_x_at) / RFU NPB (11741838_a_at) / Fold change /veh NPB (11741838_a_at) / RFU TMPRSS6 (11731388_a_at) / Fold change /veh TMPRSS6 (11731388_a_at) / RFU KRTAP10-2 (11738614_at) / Fold change /veh KRTAP10-2 (11738614_at) / RFU ARHGAP8 /// PRR5-ARHGAP8 (11727945_x_at) / Fold change /veh ARHGAP8 /// PRR5-ARHGAP8 (11727945_x_at) / RFU KRTAP5-7 /// NADSYN1 (11734609_at) / Fold change /veh KRTAP5-7 /// NADSYN1 (11734609_at) / RFU RASL12 (11751679_a_at) / Fold change /veh RASL12 (11751679_a_at) / RFU CDKN2B (11736163_a_at) / Fold change /veh CDKN2B (11736163_a_at) / RFU PRF1 (11729649_at) / Fold change /veh PRF1 (11729649_at) / RFU, ZNF638 /// ZNF638-IT1 / Fold change vs veh, ZNF638 /// ZNF638-IT1 / RFU, PANK3 / Fold change vs veh, PANK3 / RFU, SH3YL1 / Fold change vs veh, SH3YL1 / RFU, ZEB2 / Fold change vs veh, ZEB2 / RFU, NRIP1 / Fold change vs veh, NRIP1 / RFU, PTTG1IP / Fold change vs veh, PTTG1IP / RFU, CAPN2 / Fold change vs veh, CAPN2 / RFU, MED14 / Fold change vs veh, MED14 / RFU, SNORA58 / Fold change vs veh, SNORA58 / RFU, C1orf63 / Fold change vs veh, C1orf63 / RFU, LRRFIP1 / Fold change vs veh, LRRFIP1 / RFU, NDUFAF7 / Fold change vs veh, NDUFAF7 / RFU, SLC12A2 / Fold change vs veh, SLC12A2 / RFU, IBTK / Fold change vs veh, IBTK / RFU, ESF1 / Fold change vs veh, ESF1 / Fold change vs veh, TMEM50B / RFU, TAOK1 / Fold change vs veh, TAOK1 / RFU, ACBD3 / Fold change vs veh, ACBD3 / RFU, TMA16 / Fold change vs veh, TMA16 / RFU, RWDD3 / Fold change vs veh, RWDD3 / RFU, BCAT1 / Fold change vs veh, BCAT1 / RFU, EDEM3 / Fold change vs veh, EDEM3 / RFU, TMEM33 / Fold change vs veh, TMEM33 / RFU, WDR75 / Fold change vs veh, WDR75 / RFU, AHCTF1 / Fold change vs veh, AHCTF1 / RFU, TFRC / Fold change vs veh, TFRC / RFU, ZDHHC17 / Fold change vs veh, ZDHHC17 / RFU, NOM1 / Fold change vs veh, NOM1 / RFU, ARL8B / Fold change vs veh, ARL8B / RFU, ZBTB11 / Fold change vs veh, ZBTB11 / RFU, TAMM41 / Fold change vs veh, TAMM41 / RFU, KIAA1704 /// LOC100996395 / Fold change vs veh, KIAA1704 /// LOC100996395 / RFU, ING1 / Fold change vs veh, ING1 / RFU, TRMT61B / Fold change vs veh, TRMT61B / RFU, FUBP3 / Fold change vs veh, FUBP3 / RFU, TP53 / Fold change vs veh, TP53 / RFU, TNKS2 / Fold change vs veh, TNKS2 / RFU, ZFP14 / Fold change vs veh, ZFP14 / RFU, ACTR2 / Fold change vs veh, ACTR2 / RFU, PPP3R1 / Fold change vs veh, PPP3R1 / RFU, PIK3R1 / Fold change vs veh, PIK3R1 / RFU, HNRNPA1 / Fold change vs veh, HNRNPA1 / RFU, RNF170 / Fold change vs veh, RNF170 / RFU, ZNF28 / Fold change vs veh, ZNF28 / RFU, RNGTT / Fold change vs veh, RNGTT / RFU, OGT / Fold change vs veh, OGT / RFU, BRD1 / Fold change vs veh, BRD1 / RFU, MARS / Fold change vs veh, MARS / RFU, ZNF655 / Fold change vs veh, ZNF655 / RFU, FAHD1 / Fold change vs veh, FAHD1 / RFU, BDP1 / Fold change vs veh, BDP1 / RFU, LRRCC1 / Fold change vs veh, LRRCC1 / RFU, ARID1A / Fold change vs veh, ARID1A / RFU, ZNF146 / Fold change vs veh, ZNF146 / RFU, ZNF330 / Fold change vs veh, ZNF330 / RFU, GPN3 / Fold change vs veh, GPN3 / RFU, C9orf123 / Fold change vs veh, C9orf123 / RFU, N4BP2L2 / Fold change vs veh, N4BP2L2 / RFU, ARFIP1 / Fold change vs veh, ARFIP1 / RFU, FAM179B / Fold change vs veh, FAM179B / RFU, BCL10 / Fold change vs veh, BCL10 / RFU, UHRF1BP1L / Fold change vs veh, UHRF1BP1L / RFU, BET1 / Fold change vs veh, BET1 / RFU, CNOT2 / Fold change vs veh, CNOT2 / RFU, ZNF268 / Fold change vs veh, ZNF268 / Fold change vs veh, ZNF507 / RFU, DGCR2 / Fold change vs veh, DGCR2 / RFU, WDSUB1 / Fold change vs veh, WDSUB1 / Fold change vs veh, HSP90B1 /// MIR3652 / RFU, ADSS / Fold change vs veh, ADSS / RFU, GK / Fold change vs veh, GK / RFU, ZNF148 / Fold change vs veh, ZNF148 / RFU, TAF9 / Fold change vs veh, TAF9 / RFU, SLC1A5 / Fold change vs veh, SLC1A5 / RFU, SLMO2 / Fold change vs veh, SLMO2 / RFU, ABCC4 / Fold change vs veh, ABCC4 / RFU, LOC101060439 /// RAP1B / Fold change vs veh, LOC101060439 /// RAP1B / RFU, RFX7 / Fold change vs veh, RFX7 / RFU, GTPBP10 / Fold change vs veh, GTPBP10 / RFU, CNEP1R1 / Fold change vs veh, CNEP1R1 / RFU, BIVM-ERCC5 /// ERCC5 / Fold change vs veh, BIVM-ERCC5 /// ERCC5 / RFU, ILF3 / Fold change vs veh, ILF3 / RFU 11762660_at / Fold change /veh 11762660_at / RFU VCAN (11757783_s_at) / Fold change /veh VCAN (11757783_s_at) / RFU DDX43 (11728927_at) / Fold change /veh DDX43 (11728927_at) / RFU KRT8 (11758188_x_at) / Fold change /veh KRT8 (11758188_x_at) / RFU NKD1 (11759106_at) / Fold change /veh NKD1 (11759106_at) / RFU SRD5A1 (11742802_a_at) / Fold change /veh SRD5A1 (11742802_a_at) / RFU TPSAB1 /// TPSB2 (11721975_s_at) / Fold change /veh TPSAB1 /// TPSB2 (11721975_s_at) / RFU GSTM3 (11746129_a_at) / Fold change /veh GSTM3 (11746129_a_at) / RFU IL23R (11737362_x_at) / Fold change /veh IL23R (11737362_x_at) / RFU TMEM51 (11727254_a_at) / Fold change /veh TMEM51 (11727254_a_at) / RFU PIWIL2 (11732686_x_at) / Fold change /veh PIWIL2 (11732686_x_at) / RFU ORM1 (11744905_x_at) / Fold change /veh ORM1 (11744905_x_at) / RFU CCDC152 (11743942_at) / Fold change /veh CCDC152 (11743942_at) / RFU ECM1 (11717891_a_at) / Fold change /veh ECM1 (11717891_a_at) / RFU IL23R (11748794_a_at) / Fold change /veh IL23R (11748794_a_at) / RFU TNFAIP8L3 (11732012_x_at) / Fold change /veh TNFAIP8L3 (11732012_x_at) / RFU MBOAT4 (11741988_at) / Fold change /veh MBOAT4 (11741988_at) / RFU 11764193_at / Fold change /veh 11764193_at / RFU TMEM53 (11763286_at) / Fold change /veh TMEM53 (11763286_at) / RFU MAGEB2 (11727129_at) / Fold change /veh MAGEB2 (11727129_at) / RFU TMEM200A (11744735_a_at) / Fold change /veh TMEM200A (11744735_a_at) / RFU CCDC152 (11751479_a_at) / Fold change /veh CCDC152 (11751479_a_at) / RFU FAM211A (11726209_a_at) / Fold change /veh FAM211A (11726209_a_at) / RFU RGS16 (11746705_a_at) / Fold change /veh RGS16 (11746705_a_at) / RFU VCAN (11755009_s_at) / Fold change /veh VCAN (11755009_s_at) / RFU RHOB (11743442_s_at) / Fold change /veh RHOB (11743442_s_at) / RFU RGS16 (11720943_a_at) / Fold change /veh RGS16 (11720943_a_at) / RFU RGS16 (11720944_at) / Fold change /veh RGS16 (11720944_at) / RFU, VPS4B / Fold change vs veh, VPS4B / RFU, CREB1 / Fold change vs veh, CREB1 / RFU, DNAJC13 / Fold change vs veh, DNAJC13 / RFU, GNAQ / Fold change vs veh, GNAQ / RFU, CDK5R1 / Fold change vs veh, CDK5R1 / RFU, ZRANB3 / Fold change vs veh, ZRANB3 / RFU, CUL4A / Fold change vs veh, CUL4A / RFU, CCNY / Fold change vs veh, CCNY / RFU, UFL1 / Fold change vs veh, UFL1 / RFU, COG3 / Fold change vs veh, COG3 / RFU, DIAPH2 / Fold change vs veh, DIAPH2 / RFU, SKA2 / Fold change vs veh, SKA2 / RFU, AFF3 / Fold change vs veh, AFF3 / RFU, LMF1 / Fold change vs veh, LMF1 / RFU, IPO11 / Fold change vs veh, IPO11 / RFU, DFFB / Fold change vs veh, DFFB / RFU, FOXP1 / Fold change vs veh, FOXP1 / RFU, CARD8 / Fold change vs veh, CARD8 / RFU, STRN3 / Fold change vs veh, STRN3 / RFU, ADK / Fold change vs veh, ADK / RFU, RASSF2 / Fold change vs veh, RASSF2 / RFU, WIPF1 / Fold change vs veh, WIPF1 / RFU, LARP1B / Fold change vs veh, LARP1B / RFU, RASA1 / Fold change vs veh, RASA1 / RFU, RB1 / Fold change vs veh, RB1 / RFU, PPFIA1 / Fold change vs veh, PPFIA1 / RFU, MAT2A / Fold change vs veh, MAT2A / RFU, CCT5 / Fold change vs veh, CCT5 / RFU, WDR92 / Fold change vs veh, WDR92 / RFU, CUX1 / Fold change vs veh, CUX1 / RFU, TTC7A / Fold change vs veh, TTC7A / RFU, TMEM135 / Fold change vs veh, TMEM135 / RFU, DEPTOR / Fold change vs veh, DEPTOR / RFU, CPM / Fold change vs veh, CPM / RFU, DNAJB6 / Fold change vs veh, DNAJB6 / RFU, CACNA2D3 / Fold change vs veh, CACNA2D3 / RFU, DTX4 / Fold change vs veh, DTX4 / RFU, TFCP2 / Fold change vs veh, TFCP2 / RFU, GMCL1 /// GMCL1P1 / Fold change vs veh, GMCL1 /// GMCL1P1 / RFU, AEBP2 / Fold change vs veh, AEBP2 / RFU, SNHG1 /// SNORD22 /// SNORD25 /// SNORD26 /// SNORD27 /// SNORD28 /// SNORD29 /// SNORD31 / Fold change vs veh, SNHG1 /// SNORD22 /// SNORD25 /// SNORD26 /// SNORD27 /// SNORD28 /// SNORD29 /// SNORD31 / Fold change (Aza/veh), C12orf56 (ProbeSet 11735607_a_at) / Fold change (ACY-1035/veh), C12orf56 (ProbeSet 11735607_a_at) / Fold change (Aza/veh), FGFR1OP (ProbeSet 11751329_s_at) / Fold change (ACY-1035/veh), FGFR1OP (ProbeSet 11751329_s_at) / Fold change (Aza/veh), VPS36 (ProbeSet 11739960_a_at) / Fold change (ACY-1035/veh), VPS36 (ProbeSet 11739960_a_at) / RFU SYPL1 (11715823_x_at) / Fold change /veh SYPL1 (11715823_x_at) / RFU IGFBP7 (11715501_s_at) / Fold change /veh IGFBP7 (11715501_s_at) / RFU REEP3 (11722064_at) / Fold change /veh REEP3 (11722064_at) / RFU IGLL1 (11728026_x_at) / Fold change /veh IGLL1 (11728026_x_at): dose or concentration left out as unconfirmed
Settings: ProbeSet 11728271_at; LIST B

Nc1ccc(-c2cccs2)cc1NC(=O)c1ccc2c(c1)cc(C1CC1)n2CCN1CCOCC1 [ACY-1035]
Fold change vs veh, ZNF330: 0.88
